The experiment deals with human PDE10A (UniProt Q9Y233). As to the kind of experiment: Measurement of PDE activity (recombinant enzyme, HTRF cAMP kit). Type of experiment: biochemical. Particulars: Table 1, substrate 20 nM for PDE10, 60 minutes at 29 C, read-out: IC50. How it is done: The recombinant PDE proteins are used in in vitro enzymatic reaction for measurement of PDE activity. These recombinant proteins, including PDE10A (human, rat and mouse PDE10) and isoforms of PDEs 1, 3, 4, and 5, were purchased from commercial vendor BPS Bioscience. The enzymatic activity of PDEs was determined by cAMP measurement kit from CisBio (IBA) using HTRF technology.
The PDE enzymatic reaction was carried out in assay buffer (20 mM Tris-HCl pH7.5, 10 mM MgCl2, 0.1% bovine serum albumin) containing enzyme and substrate. The PDE enzymes concentration ranged from 10 pM-250 pM, depending on each enzyme's specific activity. The substrate cyclic nucleotide (cAMP or cGMP) concentration used in the assay was 20 nM for PDE10, and 100 nM for other PDEs. The inhibitory effect of compound was determined by incubating various concentration of inhibitor in the enzymatic assay. Typically, compound was serial diluted in DMSO then further diluted in assay buffer. Next, the compound at varying concentration was mixed with PDE enzyme. The reaction was initiated by addition of cyclic nucleotide substrate, and incubated for 60 minutes at 29 C. The reaction was stopped by addition of lysis buffer from assay kit. The cAMP-d2 and anti-cAMP cryptate in the lysis buffer detected the level of cAMP left from the PDE hydrolysis reaction. The PDE activity is reversely correlated with the amount of cAMP left in the reaction and can be converted to the percent activity of an uninhibited control (100%). Thus, IC50 value of inhibitor can be obtained by plotting inhibitor concentration against PDE activity at that concentration.
(In general: Time-resolved FRET reads energy transfer from a long-lived donor to a nearby acceptor.)

pIC50: −log10 of the molar value.

Sequence of human PDE10A (Q9Y233 290-1055 limits assumed): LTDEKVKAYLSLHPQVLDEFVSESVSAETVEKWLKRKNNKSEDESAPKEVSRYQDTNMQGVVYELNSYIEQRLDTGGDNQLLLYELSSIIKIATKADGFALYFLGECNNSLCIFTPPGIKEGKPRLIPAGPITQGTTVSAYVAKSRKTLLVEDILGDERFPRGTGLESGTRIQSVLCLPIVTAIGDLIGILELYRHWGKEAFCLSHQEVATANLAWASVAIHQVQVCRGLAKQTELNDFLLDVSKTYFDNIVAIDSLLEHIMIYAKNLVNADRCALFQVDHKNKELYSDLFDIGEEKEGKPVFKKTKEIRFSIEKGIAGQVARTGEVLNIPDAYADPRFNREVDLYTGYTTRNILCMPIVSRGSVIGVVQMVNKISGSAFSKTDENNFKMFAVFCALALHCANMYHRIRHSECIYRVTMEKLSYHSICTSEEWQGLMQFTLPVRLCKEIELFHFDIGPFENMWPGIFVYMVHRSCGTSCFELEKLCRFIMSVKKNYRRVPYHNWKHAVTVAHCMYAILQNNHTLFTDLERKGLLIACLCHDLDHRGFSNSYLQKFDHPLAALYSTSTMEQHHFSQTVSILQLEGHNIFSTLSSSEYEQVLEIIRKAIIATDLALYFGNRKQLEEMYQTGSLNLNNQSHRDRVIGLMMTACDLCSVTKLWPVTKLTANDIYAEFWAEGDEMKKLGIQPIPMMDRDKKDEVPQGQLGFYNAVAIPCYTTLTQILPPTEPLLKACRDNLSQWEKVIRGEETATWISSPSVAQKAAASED

What is called pIC50 is the negative decadic logarithm of the IC50, by convention in mol/L. Regarding “8-(2-Fluoro-5-methoxyphenyl)-2-[2-(quinolin-2-yl)ethyl]phthalazin-1(2H)-one [Example 164]”, the pIC50 was 6.70 to 7.00.
Take `O=c1c2c(-c3ccncc3)cccc2ccn1C1CC1c1ccc2ccccc2n1` (racemic) [Example 222, anti (rac) 8-(Pyridin-4-yl)-2-(2-(quinolin-2-yl)cyclopropyl)isoquinolin-1(2H)-one]: the pIC50 is above 7.00.
Then `O=c1c2c(-c3ccncc3)csc2ccn1C1CC1c1ccc2ccccc2n1` (racemic) [Example 224, anti (rac) 3-(Pyridin-4-yl)-5-(2-(quinolin-2-yl)cyclopropyl)thieno[3,2-c]pyridin-4(5H)-one], with above 7.00; and `O=c1c2c(-c3ccncc3)cccc2cnn1C1CC1c1ccc2ccccc2n1` (racemic) [Example 226, anti (rac) 8-Pyridin-4-yl-2-(2-quinolin-2-yl-cyclopropyl)-2H-phthalazin-1-one 2,2,2,-trifluoroacetate], with above 7.00; and `O=c1c2c(NC3COC3)cccc2ccn1[C@@H]1C[C@H]1c1ccc2ccccc2n1` (racemic) [Example 235, anti 8-(Oxetan-3-ylamino)-2-(2-(quinolin-2-yl)cyclopropyl)isoquinolin-1(2H)-one], with above 7.00.
Then `O=c1c2c(-c3cncnc3)cccc2ccn1[C@@H]1C[C@H]1c1ccc2ccccc2n1` (racemic) [Example 240, anti 8-(pyrimidin-5-yl)-2-(2-(quinolin-2-yl)cyclopropyl)isoquinolin-1(2H)-one], with above 7.00; and `O=c1c2c(-c3ccnnc3)coc2ccn1[C@@H]1C[C@H]1c1ccc2ccccc2n1` (relative stereo) [Example 232, anti 3-(Pyridazin-4-yl)-5-(2-(quinolin-2-yl)cyclopropyl)furo[3,2-c]pyridin-4(5H)-one], with above 7.00; and `O=c1c2c(-c3ccncc3)coc2ccn1[C@@H]1C[C@H]1c1ccc2ccccc2n1` (relative stereo) [Example 233, anti 3-(pyridin-4-yl)-5-(2-(quinolin-2-yl)cyclopropyl)furo[3,2-c]pyridin-4(5H)-one], with above 7.00.
Then `Cn1cc(-c2cccc3ccn([C@@H]4C[C@H]4c4ccc5ccccc5n4)c(=O)c23)cn1` (relative stereo) [Example 241, anti 8-(1-methyl-1H-pyrazol-4-yl)-2-(2-(quinolin-2-yl)cyclopropyl)isoquinolin-1(2H)-one], with above 7.00; and `O=c1c2c(-c3ccncc3F)cccc2ccn1[C@@H]1C[C@H]1c1ccc2ccccc2n1` (relative stereo) [Example 242, anti 8-(3-fluoropyridin-4-yl)-2-(2-(quinolin-2-yl)cyclopropyl)isoquinolin-1(2H)-one], with above 7.00; and `O=c1c2c(-c3ccnc(F)c3)cccc2ccn1[C@@H]1C[C@H]1c1ccc2ccccc2n1` (relative stereo) [Example 243, anti 8-(2-fluoropyridin-4-yl)-2-(2-(quinolin-2-yl)cyclopropyl)isoquinolin-1(2H)-one], with above 7.00.
For `N#CC1CCN(c2cccc3ccn([C@@H]4C[C@H]4c4ccc5ccccc5n4)c(=O)c23)CC1` (relative stereo) [Example 247, anti 1-(1-oxo-2-(2-(quinolin-2-yl)cyclopropyl)-1,2-dihydroisoquinolin-8-yl)piperidine-4-carbonitrile], the pIC50 was above 7.00.
With `COC1CCN(c2cccc3ccn([C@@H]4C[C@H]4c4ccc5ccccc5n4)c(=O)c23)CC1` (relative stereo) [Example 252, anti 8-(4-methoxypiperidin-1-yl)-2-(2-(quinolin-2-yl)cyclopropyl)isoquinolin-1(2H)-one (2E)-but-2-enedioate], the pIC50 was above 7.00.
For the compound `O=c1c2c(N3CCC(O)CC3)cccc2ccn1[C@@H]1C[C@H]1c1ccc2ccccc2n1` (relative stereo) [Example 253, anti 8-(4-hydroxypiperidin-1-yl)-2-(2-(quinolin-2-yl)cyclopropyl)isoquinolin-1(2H)-one (2E)-but-2-enedioate], the pIC50 was above 7.00.
On to `O=c1c2c(-c3ccc(F)cc3)cccc2ccn1[C@@H]1C[C@H]1c1ccc2ccccc2n1` (relative stereo) [Example 267, anti 8-(4-fluorophenyl)-2-(2-(quinolin-2-yl)cyclopropyl)isoquinolin-1(2H)-one], for which the pIC50 was above 7.00.
As for `O=c1c2c(N3CCOCC3)cccc2ccn1[C@@H]1C[C@H]1c1ccc2cc(F)ccc2n1` (relative stereo) [Example 271, anti 2-(2-(6-fluoroquinolin-2-yl)cyclopropyl)-8-morpholinoisoquinolin-1(2H)-one], the figure is above 7.00.
As for `O=c1c2c(-c3cncnc3)cccc2ccn1[C@@H]1C[C@H]1c1ccc2cc(F)ccc2n1` (relative stereo) [Example 273, anti 2-(2-(6-fluoroquinolin-2-yl)cyclopropyl)-8-(pyrimidin-5-yl)isoquinolin-1(2H)-one], the figure is above 7.00; as for `O=c1c2c(-c3ccncc3)ccnc2cnn1[C@@H]1C[C@H]1c1ccc2ccccc2n1` (relative stereo) [Example 277, anti 4-(pyridin-4-yl)-6-(2-(quinolin-2-yl)cyclopropyl)pyrido[2,3-d]pyridazin-5(6H)-one], above 7.00.
Then `O=c1c2c(-c3ccncc3)cccc2cnn1[C@@H]1C[C@H]1c1ccc2cc(F)ccc2n1` (relative stereo) [compound 278], with above 7.00.
`O=c1c2c(-c3ccnc(F)c3)csc2ccn1[C@@H]1C[C@H]1c1ccc2ccccc2n1` (relative stereo) [compound 286]: the pIC50 was above 7.00.
`O=c1c2c(-c3ccncc3)csc2ccn1C1CC1c1ccc2ccccc2n1` (single isomer, unassigned) [293a]: the pIC50 was above 7.00.
On to `O=c1c2c(-c3ccncc3)csc2ccn1C1CC1c1ccc2ccccc2n1` (single isomer, unassigned) [293b], for which the pIC50 is above 7.00.
Take `O=c1c2c(-c3ccnnc3)cccc2ccn1C1CC1c1ccc2ccccc2n1` (single isomer, unassigned) [Example 236, anti (−) 8-(pyridazin-4-yl)-2-(2-(quinolin-2-yl)cyclopropyl)isoquinolin-1(2H)-one]: the pIC50 was above 7.00.
Regarding `O=c1c2c(-c3ccc(F)nc3)cccc2ccn1C1CC1c1ccc2ccccc2n1` (single isomer, unassigned) [Example 237, anti (−) 8-(6-fluoropyridin-3-yl)-2-(2-(quinolin-2-yl)cyclopropyl)isoquinolin-1(2H)-one], the pIC50 was above 7.00.
As for `O=c1c2c(-c3ccnc(F)c3)cccc2ccn1C1CC1c1ccc2ccccc2n1` (single isomer, unassigned) [Example 238, anti (−) 8-(2-fluoropyridin-4-yl)-2-(2-(quinolin-2-yl)cyclopropyl)isoquinolin-1(2H)-one], the figure is above 7.00; as for `O=c1c2c(-c3cncnc3)cccc2ccn1C1CC1c1ccc2ccccc2n1` (single isomer, unassigned) [Example 240a, anti (+) 8-(pyrimidin-5-yl)-2-(2-(quinolin-2-yl)cyclopropyl)isoquinolin-1(2H)-one], above 7.00; as for `O=c1c2c(N3CCOCC3)cccc2ccn1C1CC1c1ccc2ccccc2n1` (single isomer, unassigned) [Example 246a, anti (+) 8-morpholino-2-(2-(quinolin-2-yl)cyclopropyl)isoquinolin-1(2H)-one], above 7.00.
